Experiment [1] has as its system Klebsiella pneumoniae ATCC 43816. Put plainly: MIC by standard broth microdilution (CLSI), Klebsiella pneumoniae. In kind it is cell-based. The procedure: (§1) The in vitro activity against bacteria was determined by standard broth microdilution according to the Clinical and Laboratory Standards Institute CLSI document (Performance Standards for Antimicrobial Susceptibility Testing) M100Ed29E (2019) and (Methods for Dilution Antimicrobial Susceptibility Test for Bacteria That Grow Aerobically) M07Ed11 (2018). The data were obtained using cation-adjusted Mueller Hinton broth medium (CAMHB), and additionally iron-depleted CAMHB medium (ID-CAMHB) for compounds with iron-chelating activity.

Experiment [2] can be described thus: Chromeazurol assay (iron-chelating property). The experiment is classed as physicochemical. The settings on record: absorbance at 630 nm. The procedure: The iron-chelating property was determined by the chromeazurol assay according to Schwyn B., et al, Universal Chemical Assay for the Detection and Determination of Siderophores, 1987. Analytical Biochemistry 160: 47-56. The assay uses the affinity of chrome azurol S/iron(III)/hexadecyltrimethylamimonium bromide for iron(III). When a strong chelator removes the iron from this dye, its color turns from blue to orange and the absorbance measured at 630 nm is indicative for the chelating properties of a siderophore.

The test system of experiment [3] is Burkholderia cepacia CF and non-CF isolates, n = 5. Put plainly: MIC by standard broth microdilution (CLSI), Burkholderia cepacia isolates. The experiment is classed as cell-based. As to the method: as §1
Experiment [4] relates to Escherichia coli ATCC 25922. Description: MIC by standard broth microdilution (CLSI), Escherichia coli. The experiment is classed as cell-based. The procedure: as §1
In experiment [5] the test system is Pseudomonas aeruginosa ATCC 27853. Put plainly: MIC by standard broth microdilution (CLSI), Pseudomonas aeruginosa. In kind it is cell-based. As to the method:
as §1

Experiment [6] has as its system Acinetobacter baumannii ATCC 15473. Description: MIC by standard broth microdilution (CLSI), Acinetobacter baumannii. In kind it is cell-based. The procedure:
as §1

[7] abbreviates: ATCC43816, KP ATCC 43816, cation-adjusted Mueller Hinton broth (CAMHB), read-out: MIC in CAMHB medium.
Setting [8] is: ATCC43816, KP ATCC 43816, iron-depleted CAMHB (value in parentheses), read-out: MIC in ID-CAMHB medium.
Setting [9] is: read-out: MIC in ID-CAMHB medium.
The mark [10] stands for this setting: ATCC25922, EC ATCC 25922, cation-adjusted Mueller Hinton broth (CAMHB), read-out: MIC in CAMHB medium.
The mark [11] stands for this setting: ATCC25922, EC ATCC 25922, iron-depleted CAMHB (value in parentheses), read-out: MIC in ID-CAMHB medium.
The mark [12] stands for this setting: ATCC27853, PA ATCC 27853, cation-adjusted Mueller Hinton broth (CAMHB), read-out: MIC in CAMHB medium.
Where [13] appears, read: ATCC27853, PA ATCC 27853, iron-depleted CAMHB (value in parentheses), read-out: MIC in ID-CAMHB medium.
Setting [14] is: ATCC15473, AB ATCC 15473, cation-adjusted Mueller Hinton broth (CAMHB), read-out: MIC in CAMHB medium.
Setting [15] is: ATCC15473, AB ATCC 15473, iron-depleted CAMHB (value in parentheses), read-out: MIC in ID-CAMHB medium.

Converted amounts (≈) assume the structure as drawn. Like-named read-outs stand apart in the source and are kept apart here.

On to `CC(C)(O/N=C(\C(=O)N[C@@H]1C(=O)N2C(C(=O)O)=C(C=NOCc3cc(=O)c(O)cn3O)CS[C@H]12)c1csc(N)n1)C(=O)O` [Example 1, (6R,7R)-7-[[(2Z)-2-(2-aminothiazol-4-yl)-2-(1-carboxy-1-methyl-ethoxy)imino-acetyl]amino]-3-[(1,5-dihydroxy-4-oxo-2-pyridyl)methoxyiminomethyl]-8-oxo-5-thia-1-azabicyclo[4.2.0]oct-2-ene-2-carboxylic acid], for which the MIC in experiment [1] (setting [7]) was not above 0.03 µg/mL; in experiment [1] (setting [8]), 0.25 µg/mL (≈ 0.392 µM); in experiment [3] (read-out: MIC in CAMHB medium) it was 0.03 to 0.06 µg/mL (≈ 0.0471 to 0.0941 µM); in experiment [3] (setting [9]), 0.03 to 0.12 µg/mL (≈ 0.0471 to 0.188 µM); in experiment [4] (setting [10]) it was 0.12 µg/mL (≈ 0.188 µM); in experiment [4] (setting [11]), 0.25 µg/mL (≈ 0.392 µM). Further, the MIC is 1 µg/mL (≈ 1.57 µM) in experiment [5] (setting [12]), 0.25 µg/mL (≈ 0.392 µM) in experiment [5] (setting [13]), 2 µg/mL (≈ 3.14 µM) in experiment [6] (setting [14]) and 0.5 µg/mL (≈ 0.784 µM) in experiment [6] (setting [15]). In addition, the IC50 in experiment [2] stood at 7.18 µM.
Take `CC(C)(O/N=C(\C(=O)NC1C(=O)N2C(C(=O)O)=C(C=NOCCNC(=O)c3ccc(O)c(O)c3Cl)CSC12)c1nsc(N)n1)C(=O)O` (stereo not shown) [Example 5, 7-[[(2Z)-2-(5-amino-1,2,4-thiadiazol-3-yl)-2-(1-carboxy-1-methyl-ethoxy)imino-acetyl]amino]-3-[2-[(2-chloro-3,4-dihydroxy-benzoyl)amino]ethoxyiminomethyl]-8-oxo-5-thia-1-azabicyclo[4.2.0]oct-2-ene-2-carboxylic acid]: the MIC in experiment [1] (setting [7]) is 0.5 µg/mL (≈ 0.701 µM); in experiment [1] (setting [8]), 1 µg/mL (≈ 1.4 µM); in experiment [3] (read-out: MIC in CAMHB medium) it was 0.03 to 0.12 µg/mL (≈ 0.0421 to 0.168 µM); in experiment [3] (setting [9]) it was 0.03 to 0.12 µg/mL (≈ 0.0421 to 0.168 µM); in experiment [4] (setting [10]), 0.25 µg/mL (≈ 0.351 µM); in experiment [4] (setting [11]), 0.25 µg/mL (≈ 0.351 µM). Further, the MIC was 2 µg/mL (≈ 2.8 µM) in experiment [5] (setting [12]), 0.5 µg/mL (≈ 0.701 µM) in experiment [5] (setting [13]), 1 µg/mL (≈ 1.4 µM) in experiment [6] (setting [14]) and 0.5 µg/mL (≈ 0.701 µM) in experiment [6] (setting [15]). Also, in experiment [2], the 50% inhibitory concentration (IC50) came to 6.41 µM.
For `CC(C)(O/N=C(\C(=O)N[C@@H]1C(=O)N2C(C(=O)[O-])=C(C[n+]3ccccc3)CS[C@H]12)c1csc(N)n1)C(=O)O` [Ceftazidime, reference compound], the MIC in experiment [1] (setting [7]) is 0.12 µg/mL (≈ 0.22 µM); in experiment [3] (BC CF and non-CF isolates, n = 5 (MIC range), CAMHB, read-out: MIC in CAMHB medium), 4 to 16 µg/mL (≈ 7.32 to 29.3 µM); in experiment [4] (setting [10]), 0.12 µg/mL (≈ 0.22 µM); in experiment [5] (setting [12]), 2 µg/mL (≈ 3.66 µM); in experiment [6] (setting [14]), 4 µg/mL (≈ 7.32 µM). In experiment [2], the IC50 is more than 100 µM.
For the compound `Cn1c(N)c(NC(=O)NCCN)c[n+]1CC1=C(C(=O)O)N2C(=O)[C@@H](NC(=O)/C(=N\OC(C)(C)C(=O)[O-])c3nsc(N)n3)[C@H]2SC1` [Ceftolozane, reference compound], the minimal inhibitory concentration (MIC) in experiment [1] (setting [7]) is 0.25 µg/mL (≈ 0.375 µM); in experiment [3] (read-out: MIC in CAMHB medium), 2 to 8 µg/mL (≈ 3 to 12 µM); in experiment [4] (setting [10]) it was 0.25 µg/mL (≈ 0.375 µM); in experiment [5] (setting [12]), 0.5 µg/mL (≈ 0.75 µM); in experiment [6] (setting [14]), 2 µg/mL (≈ 3 µM). In experiment [2], the IC50 is more than 100 µM.
On to `CC(C)(O/N=C(\C(=O)NC1C(=O)N2C(C(=O)O)=C(C=NO[C@H]3C[C@H](NC(=O)c4ccc(O)c(O)c4Cl)C3)CSC12)c1csc(N)n1)C(=O)O` (relative stereo) [Example 7, 7-[[(2Z)-2-(2-aminothiazol-4-yl)-2-(1-carboxy-1-methyl-ethoxy)imino-acetyl]amino]-3-[[3-[(2-chloro-3,4-dihydroxy-benzoyl)amino]- trans-cyclobutoxy]iminomethyl]-8-oxo-5-thia-1-azabicyclo[4.2.0]oct-2-ene-2-carboxylic acid], for which the MIC in experiment [1] (setting [7]) is 0.12 µg/mL (≈ 0.163 µM); in experiment [1] (setting [8]), 0.5 µg/mL (≈ 0.677 µM); in experiment [3] (read-out: MIC in CAMHB medium) it was 0.03 to 0.12 µg/mL (≈ 0.0406 to 0.163 µM); in experiment [3] (setting [9]) it was 0.03 to 0.12 µg/mL (≈ 0.0406 to 0.163 µM); in experiment [4] (setting [10]) it was 0.5 µg/mL (≈ 0.677 µM); in experiment [4] (setting [11]) it was 0.5 µg/mL (≈ 0.677 µM). Besides, the MIC in experiment [5] (setting [12]) was found to be 2 µg/mL (≈ 2.71 µM); in experiment [5] (setting [13]), 1 µg/mL (≈ 1.35 µM); in experiment [6] (setting [14]) it was 2 µg/mL (≈ 2.71 µM); in experiment [6] (setting [15]), 1 µg/mL (≈ 1.35 µM). Also, in experiment [2], it took 4.66 µM to reach half-maximal inhibition (IC50).
Take `CC(C)(O/N=C(\C(=O)N[C@@H]1C(=O)N2C(C(=O)[O-])=C(C[N+]3(CCNC(=O)c4ccc(O)c(O)c4Cl)CCCC3)CS[C@H]12)c1csc(N)n1)C(=O)O` [Cefiderocol, cefiderocol, reference compound]: the MIC was 2 µg/mL (≈ 2.66 µM) in experiment [1] (setting [7]); 0.5 µg/mL (≈ 0.665 µM) in experiment [1] (setting [8]); not above 0.03 µg/mL in experiment [3] (read-out: MIC in CAMHB medium); not above 0.03 µg/mL in experiment [3] (setting [9]); 0.25 µg/mL (≈ 0.332 µM) in experiment [4] (setting [10]); 0.25 µg/mL (≈ 0.332 µM) in experiment [4] (setting [11]). The MIC is 1 µg/mL (≈ 1.33 µM) in experiment [5] (setting [12]), 0.5 µg/mL (≈ 0.665 µM) in experiment [5] (setting [13]), 0.25 µg/mL (≈ 0.332 µM) in experiment [6] (setting [14]) and 0.12 µg/mL (≈ 0.16 µM) in experiment [6] (setting [15]). Further, 68.9 µM corresponded to half-maximal inhibition in experiment [2] (IC50).
With `CC(C)(O/N=C(\C(=O)N[C@@H]1C(=O)N2C(C(=O)O)=C(C=NOCc3cc(=O)c(O)cn3O)CS[C@H]12)c1nsc(N)n1)C(=O)O` [Example 2, (6R,7R)-7-[[(2Z)-2-(5-amino-1,2,4-thiadiazol-3-yl)-2-(1-carboxy-1-methyl-ethoxy)imino-acetyl]amino]-3-[(1,5-dihydroxy-4-oxo-2-pyridyl)methoxyiminomethyl]-8-oxo-5-thia-1-azabicyclo[4.2.0]oct-2-ene-2-carboxylic acid], the MIC is 0.06 µg/mL (≈ 0.094 µM) in experiment [1] (setting [7]); 0.03 to 0.5 µg/mL (≈ 0.047 to 0.783 µM) in experiment [3] (read-out: MIC in CAMHB medium); 0.03 to 0.5 µg/mL (≈ 0.047 to 0.783 µM) in experiment [3] (setting [9]); 0.06 µg/mL (≈ 0.094 µM) in experiment [4] (setting [10]); 0.5 µg/mL (≈ 0.783 µM) in experiment [5] (setting [12]); 0.12 µg/mL (≈ 0.188 µM) in experiment [5] (setting [13]). Moreover, the MIC in experiment [6] (setting [14]) is 1 µg/mL (≈ 1.57 µM). For the same compound, 9.56 µM corresponded to half-maximal inhibition in experiment [2] (IC50).

Source of the values: patent publication US12371441B2, “Siderophore cephalosporin conjugates and uses thereof” (ARIVA MED GMBH, priority 2019, dated 2025).
